US11576896B2, “Benzoselenophene-based compounds, pharmaceutical compositions and antibody-drug conjugates including the same” (AIMED BIO INC., priority 2020, dated 2023)
Like-named read-outs stand apart in the source and are kept apart here.

Key:
[1] = system: ovarian cancer cells SK-OV-3; experiment: High-throughput screening (HTS) cytotoxicity, ATPlite assay; format: cell-based; set-up: AUC (area under the curve): unit not given beside the values; conditions: for IC50: Homo sapiens
Experimental: (§1) The present inventors used an HTS system capable of screening various drugs or substances at once to further screen cytotoxicity of DS-26 (Example 1) and DS-28 (Comparative Example 1). Gastric cancer cells NCI-N87 and ovarian cancer cells SK-OV-3 were separately seeded in a 384-well and treated with drugs at various concentrations and cultured for 72 hours. Then, the degree of cell growth was measured by ATPlite assay. The measured data were converted into IC50 using GraphPad Prism 5.0 software, and area under the curve (AUC) was converted to analyze the titer of each drug.
(§2) Also, DS-26 has stable solubility and stability in terms of chemical structure and thus considered worthy to be developed into drugs.

[2] = system: Gastric cancer cells NCI-N87; experiment: as above; format: cell-based; set-up: AUC (area under the curve): unit not given beside the values; conditions: NCI-N87 (HER+), 384-well, 72 hours; for IC50: Homo sapiens
Experimental: as §1, §2

[3] = SK-OV-3 (HER+), 384-well, 72 hours, ATPlite, read-out: IC50
[4] = SK-OV-3 (HER+), 384-well, 72 hours, ATPlite

| Structure (SMILES) | IC50 [1, 3] | IC50 ([1]; text summary of Table 1 and FIGS. 2A-3B, cell line not specified (NCI-N87 and SK-OV-3 tested), read-out: IC50 (text summary of HTS result)) | AUC (area under the curve) [1, 4] | IC50 [2] | AUC (area under the curve) [2] |
| --- | --- | --- | --- | --- | --- |
| COc1ccc2c(O)cc3c(c2c1)[C@H](CCl)CN3C(=O)c1cc2cc(NC(=O)CCN(C)C)ccc2[se]1 [DS-26, (S)—N-(2-(1-(chloromethyl)-5-hydroxy-8-methoxy-2,3-dihydro-1H-benzo[e]indole-3-carbonyl)benzo[b]selenophen-5-yl)-3-(dimethylamino)propanamide] | 0.042 nM | 0.04 to 0.05 nM | 481 | 0.00555 nM | 477 |
| COCCOCCOCCOCCOc1cc2[se]c(C(=O)N3C[C@@H](CCl)c4c3cc(O)c3ccc(OC)cc43)cc2cc1NC(C)=O [DS-28, reference compound] | 1.68 nM |  | 613 | 5.86 nM | 689 |
